Among the test systems are CAKI-1; CCRF-CEM; COLO 205; IGROV-1; LOX IMVI; MOLT-4; Malme-3M; NCI-H23; NCI-H460; OVCAR-3; OVCAR-8; SF-295; SF-539; SK-MEL-28; SK-MEL-2; SN12C; SNB-19; SNB-75; UACC-62; HOP-62.
Holding throughout (test): NCI anticancer screen, dose series, 48 h

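Test compounds were applied to cells in 96-well plates for 48 hours at 5 doses. GI50 is the concentration that inhibits growth by half.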 Active and inactive are the calls of the source. No stated cut-off is given here; in the data, active = GI50 up to about 1.1 µM and inactive = higher.

For the molecule `CCOCc1cc(=O)c2c(O)cc3c(c2o1)CCC(C)(C)O3`, the GI50 with CAKI-1, in the test with CCRF-CEM, in the test on COLO 205, with IGROV-1, in the test on LOX IMVI and with MOLT-4 was > 100 µM (inactive) each time. For the same molecule, the GI50 in the test on Malme-3M, with NCI-H23, with NCI-H460, in the test with OVCAR-3, in the test with OVCAR-8 and in the test on SF-295 was > 100 µM (inactive) each time. For the same molecule, the GI50 with SF-539, in the test on SK-MEL-28, in the test on SK-MEL-2, in the test on SN12C, in the test with SNB-19 and in the test with SNB-75 was > 100 µM (inactive) each time. Also, the GI50 in the test on UACC-62 is > 100 µM (inactive).

As for `COc1cc(S(=O)(=O)Nc2ccc(-c3csc(N4C(=O)C(C)SC4c4cccc(Oc5ccccc5)c4)n3)cc2)ccc1Cl` (configuration not stated), the GI50 was 46 µM (inactive) in the test on CAKI-1; 64.7 µM (inactive) in the test on CCRF-CEM; 27.7 µM (inactive) with COLO 205; 50.7 µM (inactive) in the test on HOP-62; 39 µM (inactive) with IGROV-1; 32.4 µM (inactive) in the test on LOX IMVI. In addition, the GI50 was 37.8 µM (inactive) in the test on MOLT-4; > 100 µM (inactive) in the test with Malme-3M; 33 µM (inactive) in the test on NCI-H23; 43.6 µM (inactive) in the test with OVCAR-3; 37.5 µM (inactive) in the test with OVCAR-8; 46.2 µM (inactive) in the test with SF-295. Moreover, the GI50 with SF-539 is 27.6 µM (inactive); in the test with SK-MEL-28 it was 55.8 µM (inactive); in the test with SK-MEL-2, 86.9 µM (inactive); in the test on SN12C it was 70.1 µM (inactive); with SNB-19 it was 86.9 µM (inactive); in the test on SNB-75, 52.1 µM (inactive). Also, in the test with UACC-62, the GI50 was 28.4 µM (inactive).

`O=C1CSc2cc([N+](=O)[O-])ccc2N1`: the GI50 in the test on CAKI-1, with CCRF-CEM, in the test with COLO 205, with HOP-62, with IGROV-1 and with LOX IMVI was > 100 µM (inactive) in each case. Also, the GI50 in the test with MOLT-4, with Malme-3M, in the test with NCI-H23, in the test with NCI-H460, in the test on OVCAR-3 and with OVCAR-8 was > 100 µM (inactive) each time. Moreover, the GI50 in the test on SF-295, in the test on SF-539, in the test with SK-MEL-28, in the test with SK-MEL-2, with SN12C and with SNB-19 was > 100 µM (inactive) in each case. Besides, the GI50 with SNB-75 was 22.1 µM (inactive); in the test with UACC-62, > 100 µM (inactive).

For the molecule `CCOC(=O)c1cccc(NC(=O)CBr)c1`, the GI50 is 0.618 µM (active) in the test on CAKI-1; 0.0618 µM (active) in the test on CCRF-CEM; 1.72 µM (inactive) in the test on COLO 205; 1.73 µM (inactive) with HOP-62; 0.959 µM (active) in the test on IGROV-1; 0.0904 µM (active) in the test on LOX IMVI. Further, the GI50 with MOLT-4 was 0.223 µM (active); with Malme-3M, 1.91 µM (inactive); in the test on NCI-H23, 0.942 µM (active); in the test with NCI-H460, 0.927 µM (active); in the test on OVCAR-3 it was 1.39 µM (inactive); in the test with OVCAR-8, 1.11 µM (active). Moreover, the GI50 in the test on SF-295 is 4.36 µM (inactive); with SF-539, 0.984 µM (active); in the test with SK-MEL-28 it was 2.62 µM (inactive); in the test with SK-MEL-2, 1.56 µM (inactive); with SN12C, 0.458 µM (active); in the test with SNB-19 it was 4.4 µM (inactive). The GI50 in the test with SNB-75 was 1.74 µM (inactive); with UACC-62, 1.42 µM (inactive).

As to `COc1cc(/C=C(\C)[N+](=O)[O-])cc(OC)c1`, the GI50 in the test with CAKI-1 was 14.5 µM (inactive); in the test with CCRF-CEM, 2.4 µM (inactive); with COLO 205 it was 8.05 µM (inactive); in the test with HOP-62 it was 19.2 µM (inactive); in the test on IGROV-1 it was 6.46 µM (inactive); with LOX IMVI it was 3.08 µM (inactive). Moreover, the GI50 in the test with MOLT-4 was 2.57 µM (inactive); with Malme-3M, 14.8 µM (inactive); in the test with NCI-H23 it was 19.1 µM (inactive); in the test on NCI-H460 it was 20.2 µM (inactive); in the test on OVCAR-3, 17.8 µM (inactive); in the test on OVCAR-8, 15.6 µM (inactive). Further, the GI50 with SF-295 is 25.8 µM (inactive); in the test with SF-539 it was 9.18 µM (inactive); in the test with SK-MEL-28, 18.4 µM (inactive); with SK-MEL-2, 17.2 µM (inactive); with SN12C it was 17.1 µM (inactive); in the test with SNB-19 it was > 40.9 µM (inactive). For the same molecule, the GI50 with SNB-75 was 16.7 µM (inactive); with UACC-62, 14.6 µM (inactive).

As to `C[C@H](C(=O)O)C(=O)NC(=O)N(Cc1ccccc1)N=O`, the GI50 in the test on CAKI-1 was > 100 µM (inactive); in the test with CCRF-CEM it was 67.1 µM (inactive); in the test on COLO 205 it was > 100 µM (inactive); in the test with HOP-62, > 100 µM (inactive); in the test on IGROV-1, > 100 µM (inactive); with LOX IMVI, > 100 µM (inactive). For the same molecule, the GI50 in the test on MOLT-4, in the test on Malme-3M, with NCI-H460, in the test with OVCAR-3, in the test with OVCAR-8 and in the test on SF-295 was > 100 µM (inactive) each time. Also, the GI50 was > 100 µM (inactive) with SF-539; > 100 µM (inactive) in the test on SK-MEL-28; > 100 µM (inactive) in the test on SK-MEL-2; > 100 µM (inactive) in the test with SN12C; > 100 µM (inactive) in the test with SNB-19; 98.4 µM (inactive) with SNB-75. The GI50 in the test on UACC-62 is > 100 µM (inactive).

Take `CN(C(=O)C12C3C4C1C1C2C3C41C(=O)C(C)(C)C)C(C)(C)C` (configuration not stated): the GI50 in the test on CAKI-1, in the test on CCRF-CEM, with COLO 205, with HOP-62, in the test on IGROV-1 and with LOX IMVI was > 100 µM (inactive) in each case. For the same molecule, the GI50 in the test with MOLT-4, in the test with Malme-3M, with NCI-H23, with OVCAR-3, in the test with OVCAR-8 and with SF-295 was > 100 µM (inactive) throughout. The GI50 is > 100 µM (inactive) with SF-539; > 100 µM (inactive) in the test on SK-MEL-28; > 100 µM (inactive) in the test on SK-MEL-2; > 100 µM (inactive) with SN12C; > 100 µM (inactive) in the test on SNB-19; 76 µM (inactive) in the test with SNB-75. Besides, in the test on UACC-62, the GI50 is > 100 µM (inactive).

For the molecule `COC(=O)/C=C\n1nc(Br)c(=O)[nH]c1=O`, the GI50 in the test on CAKI-1, in the test on CCRF-CEM, with COLO 205, with HOP-62, with IGROV-1 and in the test with LOX IMVI was > 100 µM (inactive) each time. Moreover, the GI50 in the test with Malme-3M, in the test with NCI-H23, with NCI-H460, in the test on OVCAR-3, with OVCAR-8 and in the test with SF-539 was > 100 µM (inactive) each time. Moreover, the GI50 with SK-MEL-28, in the test on SK-MEL-2, in the test on SN12C, in the test on SNB-19 and in the test on SNB-75 was > 100 µM (inactive) in each case.

In the case of `c1ccc(Nc2nnc(CCCCCCCCc3nnc(Nc4ccccc4)o3)o2)cc1`, the GI50 is > 100 µM (inactive) in the test on CAKI-1; > 100 µM (inactive) with CCRF-CEM; > 100 µM (inactive) in the test on COLO 205; > 100 µM (inactive) with HOP-62; 60.3 µM (inactive) in the test on IGROV-1; > 100 µM (inactive) in the test with LOX IMVI. In addition, the GI50 in the test with MOLT-4, in the test with Malme-3M, in the test with NCI-H23, in the test on NCI-H460, in the test with OVCAR-3 and in the test on OVCAR-8 was > 100 µM (inactive) throughout. Besides, the GI50 in the test with SF-295, with SF-539, in the test with SK-MEL-28, with SK-MEL-2, in the test on SN12C and with SNB-19 was > 100 µM (inactive) in each case. Further, in the test on SNB-75, the GI50 is > 100 µM (inactive).

As for `CC([C@H]1CCC2C3CCC4CC5(CC[C@]4(C)C3CC[C@@]21C)c1ccccc1C(=O)N5C)N(C)C` (some centres not stated), the GI50 with CAKI-1 is > 100 µM (inactive); in the test with CCRF-CEM, 44.4 µM (inactive); in the test on COLO 205, 33 µM (inactive); with HOP-62, 31.3 µM (inactive); with IGROV-1 it was 40.6 µM (inactive); with LOX IMVI it was 1.65 µM (inactive). Besides, the GI50 in the test on MOLT-4 was 19.2 µM (inactive); with Malme-3M, 21.2 µM (inactive); with NCI-H23 it was > 100 µM (inactive); in the test on NCI-H460, 21.4 µM (inactive); in the test on OVCAR-3, > 100 µM (inactive); in the test on OVCAR-8, 39.8 µM (inactive). Also, the GI50 in the test on SF-295 was 18.7 µM (inactive); in the test on SF-539, 17.9 µM (inactive); with SK-MEL-28 it was 17.6 µM (inactive); in the test with SK-MEL-2, 19.7 µM (inactive); in the test on SN12C it was 31.6 µM (inactive); in the test on SNB-19, 42.3 µM (inactive). In addition, the GI50 was 3.45 µM (inactive) in the test on SNB-75 and 24.5 µM (inactive) with UACC-62.

The values above are taken from ChEMBL document CHEMBL1201862, “PubChem BioAssay data set” (2004).
